Data set [1] has as its system MIA PaCa-2 xenografts. The settings on record: vector 1.00 × 10^11 GC/kg IV single dose (Groups 2, 3), Gemcitabine 60 mg/kg IP BIW. The protocol:
56 female BALB/c nude mice (IBCH RAN) of 6-8 weeks age and 18-22 g weight were used in experiment. The mice were kept in individual ventilation cages at controlled temperature and humidity with four animals in each cage. Each mouse was inoculated subcutaneously at the right flank with MIA PaCa-2 pancreatic tumor cells (1×10^7) in 0.2 ml of PBS supplemented with BD Matrigel (1:1) for tumor development. The treatments were started on day 17 after tumor inoculation when the average tumor size reached approximately 170 mm^3. Each group consisted of eight tumor-bearing mice.
Tumor size was measured twice weekly in two dimensions using a caliper, and the volume was expressed in mm^3 using the formula: V=0.5 a×b^2 where a and b are the long and short diameters of the tumor, respectively. At the time of routine monitoring, the animals were checked daily for any effects of tumor growth and treatments on normal behavior such as mobility, food and water consumption by visual inspection only, loss or gain of body weight (measured twice weekly), eye/hair matting, and any other abnormal effects. On day 35, the study was terminated, the mice were humanely sacrificed by CO2, and blood was sampled from the central and hepatic veins. Liver tissues were also sampled and immersed into formalin for fixing.

Data set [2] is described as follows: Serum DNase I activity (ORG590), MIA PaCa-2 model. Type of data set: in vivo, BALB/c nude mice. The settings on record: day 35, regimen per Table 3 (rhDNaseI protein 50 mg/kg, Group 6).
Procedure: Serum DNase I activity was measured using ORG590 (Orgentec) according to the manufacturer's protocol. Detection was performed using microplate photometer (Multiscan FC) at 450 nm with a correction wavelength of 620 nm. cfDNA in the liver tissue was quantified by immunohistochemistry (IHC) in liver paraffin slides using AC-30-10 mouse IgG DNA binding antibodies (Sigma) as primary antibodies and Novolink Polymer Detection Systems Novocastra (Leica Biosystems).
Data set [3] relates to cfDNA in the liver tissue. The experiment in a line: cfDNA in liver tissue by immunohistochemistry, MIA PaCa-2 model. The note with it: day 35; vector given with gemcitabine (Group 2); gemcitabine alone (Group 7). Type of data set: in vivo, BALB/c nude mice.
Procedure: Detection was performed using microplate photometer (Multiscan FC) at 450 nm with a correction wavelength of 620 nm. cfDNA in the liver tissue was quantified by immunohistochemistry (IHC) in liver paraffin slides using AC-30-10 mouse IgG DNA binding antibodies (Sigma) as primary antibodies and Novolink Polymer Detection Systems Novocastra (Leica Biosystems).
In data set [4] the test system is Circulating cfDNA. The settings on record: day 35; regimen per Table 3 (rhDNaseI protein 50 mg/kg, Group 6).
Procedure: SYBR® Gold Nucleic Acid Gel Stain (Invitrogen) was diluted first at 1:1000 in dimethyl sulphoxide and then at 1:8 in phosphate-buffered saline. 10 μl of plasma samples were applied to 96-well plates. 40 μl of diluted SYBR® Gold was added to each well (final dilution 1:10,000) and fluorescence was measured with a 96 well fluorometer at an emission wavelength of 535 nm and an excitation wavelength of 485 nm.
For data set [5], the system named is lung carcinoma and hepatoma metastatic disease. The settings on record: administered daily at 0.02-2.3 mg/kg; cited from earlier work.
A short description of data set [6]: DNase activity in blood, bacteriophage-induced leaky gut rats. The note with it: twice daily IV 50 mg/kg day 7 to day 12. Type of data set: in vivo, Wistar rats.
Procedure: At day 7 of phage treatment, rats were randomized into 4 groups as follows: six rats received intrahepatic injection of 1.0×10^12 LVP in a volume of 200 μl; six rats received injection of 1.0×10^12 LVP in a volume of 200 μl into a thigh muscle; six rats received twice daily intravenous injections of recombinant DNase I protein at 50 mg/kg between day 7 and day 12. The remaining six rats were used as the untreated leaky gut control. An additional six healthy rats were used as a healthy control. At day 12, all rats were sacrificed and blood samples were collected for measurement of the DNase activity in blood.
Serum DNase I activity was measured using ORG590 (Orgentec) according to the manufacturer's protocol. Detection was performed using microplate photometer (Multiscan FC) at 450 nm with a correction wavelength of 620 nm.
Data set [7] relates to 16S universal bacterial RNA gene. Nature of the data set: 16S universal bacterial RNA gene quantification in liver and brain, leaky gut rats. Type of data set: in vivo, Wistar rats. The note with it: twice daily IV 50 mg/kg day 7 to day 12.
Data set [8] concerns NLRP3. The experiment in a line: Brain NLRP3 inflammasome expression by RT-PCR, leaky gut rats. The settings on record: twice daily IV 50 mg/kg day 7 to day 12.
Procedure: Leaky gut was induced in 24 rats using a bacteriophage cocktail against Enterobacteriaceae, Staphylococcaceae, and Streptococcaceae families so as to induce microbiota diseases. […] Phages (1.5 mL, 1×10^6 plaque-forming units/mL of each phage cocktail) were added to drinking water according to the manufacturer's instruction and administered orally for 10 days. At day 7 of phage treatment, rats were randomized into 4 groups as follows: six rats received intrahepatic injection of 1.0×10^12 LVP in a volume of 200 μl; six rats received injection of 1.0×10^12 LVP in a volume of 200 μl into a thigh muscle; six rats received twice daily intravenous injections of recombinant DNase I protein at 50 mg/kg between day 7 and day 12. The remaining six rats were used as the untreated leaky gut control. An additional six healthy rats were used as a healthy control. […] Brain autopsies were collected to perform NLRP3 inflammasome expression analysis and 16S universal bacterial RNA gene quantification.
NLRP3 expression was assessed by collection of 50 mg cortical tissue samples. RNA was isolated using the SV total RNA isolation system (Promega). Superscript III one-step RT-PCR system with platinum Taq DNA Polymerase (Invitrogen) was used for reverse transcriptase-PCR using 5′-[sequence]-3′ (SEQ ID NO: 11) as forward NLRP3 primer and 5′-[sequence]-3′ (SEQ ID NO: 12) as reverse NLRP3 primer. […]
For data set [9], the system named is GVHD. The settings on record: mouse, in vivo; cited from earlier work.

This is an account of results in US11905522B2, “Treatment of diseases by liver expression of an enzyme which has a deoxyribonuclease (DNase) activity” (CLS THERAPEUTICS LIMITED, priority 2018, dated 2024).

Read-outs that look alike come from different tables or passages of the source.

Take `Nc1ccn([C@@H]2O[C@H](CO)[C@@H](O)C2(F)F)c(=O)n1` [Gemcitabine]: the mean tumor volume in data set [1] (Day 17) was determined as 170 ± 13 mm^3; in data set [1] (Day 21), 164 ± 14 mm^3; in data set [1] (Day 24), 197 ± 17 mm^3; in data set [1] (Day 28), 246 ± 10 mm^3; in data set [1] (Day 31), 220 ± 8 mm^3; in [1] (Day 35) it was 264 ± 14 mm^3. In addition, in data set [2] (central vein), the “Dnase activity in blood” value is on record as 1.15 mKuU/ml. Further, the “DNase activity in hepatic vein” value in [2] is on record as 1.05 mKuU/ml. Besides, the “cfDNA in the liver (IHC microphotographs, FIG. 4)” value in [3] is reported as “A large amount of cfDNA”. In addition, the “Cell free DNA in blood” value in data set [4] was 241 ± 11 ng/mL.

B1: RhDNase I: recombinant human DNase I in Patutina, 2011 (protein, UniProt P24855 23-282, looked up)
Deoxyribonuclease-1: LKIAAFNIQTFGETKMSNATLVSYIVQILSRYDIALVQEVRDSHLTAVGKLLDNLNQDAPDTYHYVVSEPLGRNSYKERYLFVYRPDQVSAVDSYYYDDGCEPCGNDTFNREPAIVRFFSRFTEVREFAIVPLHAAPGDAVAEIDALYDVYLDVQEKWGLEDVMLMGDFNAGCSYVRPSQWSSIRLWTSPTFQWLIPDSADTTATPTHCAYDRIVVAGMLLRGAVVPDSALPFNFQAAYGLSDQLAQAISDHYPVEVMLK
Regarding B1, in data set [5], the “suppressed the development of metastatic disease” value is 60-90%.

B2: DNase I protein (wt): recombinant wild-type DNase I protein injected IV in Example 7 (protein, UniProt P24855 23-282, looked up)
Deoxyribonuclease-1: LKIAAFNIQTFGETKMSNATLVSYIVQILSRYDIALVQEVRDSHLTAVGKLLDNLNQDAPDTYHYVVSEPLGRNSYKERYLFVYRPDQVSAVDSYYYDDGCEPCGNDTFNREPAIVRFFSRFTEVREFAIVPLHAAPGDAVAEIDALYDVYLDVQEKWGLEDVMLMGDFNAGCSYVRPSQWSSIRLWTSPTFQWLIPDSADTTATPTHCAYDRIVVAGMLLRGAVVPDSALPFNFQAAYGLSDQLAQAISDHYPVEVMLK
For the molecule B2, the “Dnase activity in blood” value in data set [6] came to 7.15 mKuU/ml. In data set [7], the “Average ΔCt values for universal bacterial 16S from RT-PCR, brain” value is on record as 27.417 and the “Average ΔCt values for universal bacterial 16S from RT-PCR, liver” value is 25.752. For the same molecule, the “Average ΔCt values for brain NLRP3 from RT-PCR” value in data set [8] turned out to be 17.341.

B3: DNaseI: DNaseI used to treat GVHD in mice (Li, 2015) (protein, UniProt P24855 23-282, looked up)
Deoxyribonuclease-1: LKIAAFNIQTFGETKMSNATLVSYIVQILSRYDIALVQEVRDSHLTAVGKLLDNLNQDAPDTYHYVVSEPLGRNSYKERYLFVYRPDQVSAVDSYYYDDGCEPCGNDTFNREPAIVRFFSRFTEVREFAIVPLHAAPGDAVAEIDALYDVYLDVQEKWGLEDVMLMGDFNAGCSYVRPSQWSSIRLWTSPTFQWLIPDSADTTATPTHCAYDRIVVAGMLLRGAVVPDSALPFNFQAAYGLSDQLAQAISDHYPVEVMLK
B3: the “treatment of GVHD in mice” value in [9] is listed as “successful use”.
